Results: ChEMBL document CHEMBL3885881, “DrugMatrix”

Organism: Rattus norvegicus
Test: DrugMatrix - Regimen: Daily Repeat
Format: toxicity, organism-based, Sprague-Dawley
Set-up: regimen Daily Repeat, gender Male, age 6-8 weeks
Conditions: in vivo, po, 0 mg/kg, route oral GAVAGE, dose level Control, vehicle .5 % CMC; for BASOPHIL / EOSINOPHIL / ERYTHROCYTE COUNT / HEMATOCRIT / HEMOGLOBIN / LEUKOCYTE COUNT / LYMPHOCYTE / MEAN CORPUSCULAR HEMOGLOBIN / MEAN CORPUSCULAR HEMOGLOBIN CONCENTRATION / MEAN CORPUSCULAR VOLUME / MONOCYTE / NEUTROPHIL / PLATELET COUNT: tissue Blood; for ALANINE AMINOTRANSFERASE / ALBUMIN / ALKALINE PHOSPHATASE / ASPARTATE AMINOTRANSFERASE / BLOOD UREA NITROGEN / CARBON DIOXIDE / CHLORIDE / CHOLESTEROL / CREATINE PHOSPHOKINASE / CREATININE / GLUCOSE / LACTATE DEHYDROGENASE / LIPASE / PHOSPHORUS / POTASSIUM / SODIUM / TOTAL BILIRUBIN / TOTAL PROTEIN / URIC ACID: tissue Plasma

O=[N+]([O-])c1ccccc1 [NITROBENZENE]
BASOPHIL (72 h, time 3 day): 0.62% | EOSINOPHIL (72 h, time 3 day): 0.52% | ERYTHROCYTE COUNT (72 h, time 3 day): 6.33 x10E6/uL | HEMATOCRIT (72 h, time 3 day): 41.88% | HEMOGLOBIN (72 h, time 3 day): 13.52 G/DL | LEUKOCYTE COUNT (72 h, time 3 day): 11.39 x10E3/uL | LYMPHOCYTE (72 h, time 3 day): 86.18% | MEAN CORPUSCULAR HEMOGLOBIN (72 h, time 3 day): 21.35 pg | MEAN CORPUSCULAR HEMOGLOBIN CONCENTRATION (72 h, time 3 day): 32.23 G/DL | MEAN CORPUSCULAR VOLUME (72 h, time 3 day): 66.25 fL | MONOCYTE (72 h, time 3 day): 1.93% | NEUTROPHIL (72 h, time 3 day): 9.1% | PLATELET COUNT (72 h, time 3 day): 1204.5 x10E3/uL | ALANINE AMINOTRANSFERASE (72 h, time 3 day): 43 u/L | ALBUMIN (72 h, time 3 day): 4.08 G/DL | ALKALINE PHOSPHATASE (72 h, time 3 day): 426.33 u/L | ASPARTATE AMINOTRANSFERASE (72 h, time 3 day): 72.5 u/L | BLOOD UREA NITROGEN (72 h, time 3 day): 16.67 mg/dL | CARBON DIOXIDE (72 h, time 3 day): 28.33 mmol/L | CHLORIDE (72 h, time 3 day): 103.5 MEQ/L | CHOLESTEROL (72 h, time 3 day): 78.83 mg/dL | CREATINE PHOSPHOKINASE (72 h, time 3 day): 325.67 u/L | CREATININE (72 h, time 3 day): 0.48 mg/dL | GLUCOSE (72 h, time 3 day): 171.67 mg/dL | LACTATE DEHYDROGENASE (72 h, time 3 day): 107.33 u/L | LIPASE (72 h, time 3 day): 11.83 u/L | PHOSPHORUS (72 h, time 3 day): 12.55 mg/dL | POTASSIUM (72 h, time 3 day): 6.57 MEQ/L | SODIUM (72 h, time 3 day): 145.67 MEQ/L | TOTAL BILIRUBIN (72 h, time 3 day): 0.42 mg/dL | TOTAL PROTEIN (72 h, time 3 day): 6.1 G/DL | URIC ACID (72 h, time 3 day): 1.57 mg/dL | BASOPHIL (120 h, time 5 day): 0.48% | EOSINOPHIL (120 h, time 5 day): 0.67% | ERYTHROCYTE COUNT (120 h, time 5 day): 6.69 x10E6/uL | HEMATOCRIT (120 h, time 5 day): 44.17% | HEMOGLOBIN (120 h, time 5 day): 13.78 G/DL | LEUKOCYTE COUNT (120 h, time 5 day): 7.86 x10E3/uL | LYMPHOCYTE (120 h, time 5 day): 85.9% | MEAN CORPUSCULAR HEMOGLOBIN (120 h, time 5 day): 20.6 pg | MEAN CORPUSCULAR HEMOGLOBIN CONCENTRATION (120 h, time 5 day): 31.25 G/DL | MEAN CORPUSCULAR VOLUME (120 h, time 5 day): 65.9 fL | MONOCYTE (120 h, time 5 day): 3.27% | NEUTROPHIL (120 h, time 5 day): 8.67% | PLATELET COUNT (120 h, time 5 day): 1182.33 x10E3/uL | ALANINE AMINOTRANSFERASE (120 h, time 5 day): 37.5 u/L | ALBUMIN (120 h, time 5 day): 4 G/DL | ALKALINE PHOSPHATASE (120 h, time 5 day): 348.17 u/L | ASPARTATE AMINOTRANSFERASE (120 h, time 5 day): 71.67 u/L | BLOOD UREA NITROGEN (120 h, time 5 day): 13 mg/dL | CARBON DIOXIDE (120 h, time 5 day): 27 mmol/L | CHLORIDE (120 h, time 5 day): 104.67 MEQ/L | CHOLESTEROL (120 h, time 5 day): 73.33 mg/dL | CREATINE PHOSPHOKINASE (120 h, time 5 day): 211.33 u/L | CREATININE (120 h, time 5 day): 0.23 mg/dL | GLUCOSE (120 h, time 5 day): 155 mg/dL | LACTATE DEHYDROGENASE (120 h, time 5 day): 133.83 u/L | LIPASE (120 h, time 5 day): 11.17 u/L | PHOSPHORUS (120 h, time 5 day): 14.53 mg/dL | POTASSIUM (120 h, time 5 day): 6.65 MEQ/L | SODIUM (120 h, time 5 day): 148.17 MEQ/L | TOTAL BILIRUBIN (120 h, time 5 day): 0.28 mg/dL | TOTAL PROTEIN (120 h, time 5 day): 6.22 G/DL | URIC ACID (120 h, time 5 day): 1.57 mg/dL | BASOPHIL ([…], time 14 day): 0.97% | EOSINOPHIL ([…], time 14 day): 0.8% | ERYTHROCYTE COUNT ([…], time 14 day): 7.02 x10E6/uL | HEMATOCRIT ([…], time 14 day): 44.43% | HEMOGLOBIN ([…], time 14 day): 14.58 G/DL | LEUKOCYTE COUNT ([…], time 14 day): 16.49 x10E3/uL | LYMPHOCYTE ([…], time 14 day): 79.03% | MEAN CORPUSCULAR HEMOGLOBIN ([…], time 14 day): 20.85 pg | MEAN CORPUSCULAR HEMOGLOBIN CONCENTRATION ([…], time 14 day): 32.78 G/DL | MEAN CORPUSCULAR VOLUME ([…], time 14 day): 63.57 fL | MONOCYTE ([…], time 14 day): 1.9% | NEUTROPHIL ([…], time 14 day): 15.18% | PLATELET COUNT ([…], time 14 day): 1184.33 x10E3/uL | ALANINE AMINOTRANSFERASE ([…], time 14 day): 43 u/L | ALBUMIN ([…], time 14 day): 4.25 G/DL | ALKALINE PHOSPHATASE ([…], time 14 day): 409.67 u/L | ASPARTATE AMINOTRANSFERASE ([…], time 14 day): 84.17 u/L | BLOOD UREA NITROGEN ([…], time 14 day): 16 mg/dL | CARBON DIOXIDE ([…], time 14 day): 35.17 mmol/L | CHLORIDE ([…], time 14 day): 99.83 MEQ/L | CHOLESTEROL ([…], time 14 day): 68.67 mg/dL | CREATINE PHOSPHOKINASE ([…], time 14 day): 384.17 u/L | CREATININE ([…], time 14 day): 0.43 mg/dL | GLUCOSE ([…], time 14 day): 160 mg/dL | LACTATE DEHYDROGENASE ([…], time 14 day): 115.33 u/L | LIPASE ([…], time 14 day): 17.33 u/L | PHOSPHORUS ([…], time 14 day): 10.68 mg/dL | POTASSIUM ([…], time 14 day): 6.48 MEQ/L | SODIUM ([…], time 14 day): 148.17 MEQ/L | TOTAL BILIRUBIN ([…], time 14 day): 0.45 mg/dL | TOTAL PROTEIN ([…], time 14 day): 6.57 G/DL | URIC ACID ([…], time 14 day): 1.78 mg/dL
